Data as given in article PMC9508239 (Nature Communications, 2022).

Experiments:
IR R345A = assay: Auto-phosphorylation of IR in 293FT cells expressing IR R345A; assay type: cell-based, human
Method: (§1) For the activation assay, the short isoform of human IR in pCS2-MYC was used as described previously[20],[49]. Plasmid transfections into 293FT cells were performed with Lipofectamin^TM 2000 (Invitrogen).
(§2) The cells were incubated with the lysis buffer B [50 mM Hepes pH 7.4, 150 mM NaCl, 10% Glycerol, 1% Triton X-100, 1 mM EDTA, 100 mM sodium fluoride, 2 mM sodium orthovanadate, 20 mM sodium pyrophosphate, 0.5 mM dithiothreitol (DTT), 2 mM phenylmethylsulfonyl fluoride (PMSF)] supplemented with cOmplete Protease Inhibitor Cocktail (Roche), PhosSTOP (Sigma), and 25 U/ml turbo nuclease (Accelagen) on ice for 1 h. After centrifuging at 20,817×g at 4 °C for 10 min, the concentrations of cell lysate were measured using Micro BCA Protein Assay Kit (Thermo Scientific). About 50–60 μg total proteins were analyzed by SDS-PAGE and quantitative Western blotting. […] For quantitative western blots, anti-rabbit immunoglobulin G (IgG) (H + L) (WB, 1:5000; Dylight 800 conjugates, Cat. #5151) and anti-mouse IgG (H + L) (WB, 1:5000; Dylight 680 conjugates, Cat. #5470) (Cell Signaling) were used as secondary antibodies. […]

IR F64A = assay: Auto-phosphorylation of IR in 293FT cells expressing IR F64A; assay type: cell-based, human; details: 10 nM, 10 min
Method: as §1, §2

IR E697A = assay: Auto-phosphorylation of IR in 293FT cells expressing IR E697A; assay type: cell-based, human
Method: as §1, §2

IR-D707A = assay: IR signaling (pY IR, pAKT, pERK) in IR-D707A MEFs; assay type: cell-based, mouse
Method: IR^F/F mice (Jackson #006955[71]) were crossed with CAG-CRE/ERT mice (Jackson #004682) to generate IR^F/F; CRE-ERT mice. The IR^F/F; CRE-ERT mice were backcrossed nine generations to C57BL/6 (Jackson #000664). The MEFs from IR^F/F; CRE-ERT mice were isolated as described earlier with some modifications. E14.5 embryos were minced with sterile scalpels and incubated with 0.25% trypsin-EDTA for 10 min at 37 °C and a 5% CO2 incubator. Fresh 0.25% trypsin-EDTA was added. After 10 min incubation, cells were put into fresh DMEM containing supplemented 10% (v/v) FBS, 2 mM L-glutamine, 55 μM β-mercaptoethanol, and 1% penicillin/streptomycin, and then centrifuged at 290×g for 5 min. After the supernatant was removed, the cells were resuspended in the DMEM and incubated at 37 °C and 5% CO2 incubator. The medium was changed the next day to remove debris and floating cells.
Viral supernatants were collected at 2 days and 3 days after transfection, concentrated with a concentrator, and added to IR^F/F; CRE-ERT MEFs with 4 μg/ml of polybrene. Cells were selected with 2 μg/ml of puromycin 2 days after infection.
as §1
The cells were incubated with the lysis buffer B [50 mM Hepes pH 7.4, 150 mM NaCl, 10% Glycerol, 1% Triton X-100, 1 mM EDTA, 100 mM sodium fluoride, 2 mM sodium orthovanadate, 20 mM sodium pyrophosphate, 0.5 mM dithiothreitol (DTT), 2 mM phenylmethylsulfonyl fluoride (PMSF)] supplemented with cOmplete Protease Inhibitor Cocktail (Roche), PhosSTOP (Sigma), and 25 U/ml turbo nuclease (Accelagen) on ice for 1 h. After centrifuging at 20,817×g at 4 °C for 10 min, the concentrations of cell lysate were measured using Micro BCA Protein Assay Kit (Thermo Scientific). About 50–60 μg total proteins were analyzed by SDS-PAGE and quantitative Western blotting. The following antibodies were purchased from commercial sources: Anti-IR-pY1150/1151 (WB, 1:1000; 19H6; labeled as pY IR, Cat. #3024), anti-AKT (WB, 1:1000; 40D4, Cat. #2920), anti-pS473 AKT (WB, 1:1000; D9E, Cat. #4060), anti-ERK1/2 (WB, 1:1000; L34F12, Cat. #4696), anti-pERK1/2 (WB, […]; 197G2, Cat. #4377), anti-IRS1-pS616 (WB, 1:1000; C15H5, Cell Signaling, Cat. #3203); anti-IRS1 (WB, 1:1000; A301-158A, Bethyl Laboratory); anti-IR (WB, 1:500, CT-3, Santa Cruz; labeled as IR for primary hepatocytes and MEFs, Cat. #sc-57342); anti-IR (WB, 1:1000; EPR23566-103; labeled as IR for Fig. S10, ab278100, Abcam); anti-Myc (WB, 1:2000; 9E10, Cat. #11667149001, Roche; labeled as IR for 293FT cells). For quantitative western blots, anti-rabbit immunoglobulin G (IgG) (H + L) (WB, 1:5000; Dylight 800 conjugates, Cat. #5151) and anti-mouse IgG (H + L) (WB, 1:5000; Dylight 680 conjugates, Cat. #5470) (Cell Signaling) were used as secondary antibodies. The membranes were scanned with the Odyssey Infrared Imaging System (Li-COR, Lincoln, NE).

blood glucose = assay: Oral glucose tolerance test after chronic treatment; assay type: in vivo, mouse; parameters: Mean Diff. of blood glucose (OGTT) / blood glucose (OGTT) / Supplementary Figure 10d (area under the OGTT glucose curve): unit not given here; details: for Mean Diff. of blood glucose (OGTT), PBS vs. treatment: PBS minus treatment, Tukey's multiple comparisons test; for Mean Diff. of blood glucose (OGTT): Dunnett's multiple comparisons test; for Supplementary Figure 10d (area under the OGTT glucose curve): time 0-120
Method: For the oral glucose tolerance test, mice were fasted for 6 h and their blood glucose levels (T = 0) were measured with tail bleeding using a glucometer (AlphaTRAK). After then, glucose (2 g/kg body weight) was administered by oral gavage. Blood glucose levels were measured at the indicated time points after glucose administration. For Fig. S10f, 2 months old male mice were fasted for 14 h. […] One hour later, livers were collected.

insulin: native IR ligand used as comparator; Humulin in the in vivo tests
IR activation (IR R345A): largely diminished IR activation by insulin
IR activation (IR F64A): defective insulin-dependent activation
IR activation (IR E697A): largely diminished IR activation by insulin
phosphorylation of AKT (IR-D707A): greatly reduced
phosphorylation of ERK (IR-D707A): greatly reduced
phosphorylation of IR (IR-D707A): remarkedly reduced
pAKT (IR-D707A; high concentration of insulin): significantly increased pAKT and pERK
pERK (IR-D707A; high concentration of insulin): significantly increased pAKT and pERK
Mean Diff. of blood glucose (OGTT), PBS vs. treatment (blood glucose; Row 1 (time 0)): -8
Mean Diff. of blood glucose (OGTT) (blood glucose; Row 1 vs. Row 2 (time 0 minus time 15)): -254.8
Mean Diff. of blood glucose (OGTT) (blood glucose; Row 1 vs. Row 3 (time 0 minus time 30)): -168.8
Mean Diff. of blood glucose (OGTT) (blood glucose; Row 1 vs. Row 4 (time 0 minus time 60)): -60
Mean Diff. of blood glucose (OGTT) (blood glucose; Row 1 vs. Row 5 (time 0 minus time 120)): -35.2
Mean Diff. of blood glucose (OGTT), PBS vs. treatment (blood glucose; Row 2 (time 15)): -66.2
Mean Diff. of blood glucose (OGTT), PBS vs. treatment (blood glucose; Row 3 (time 30)): -9
Mean Diff. of blood glucose (OGTT), PBS vs. treatment (blood glucose; Row 4 (time 60)): 1
Mean Diff. of blood glucose (OGTT), PBS vs. treatment (blood glucose; Row 5 (time 120)): -9.8
Supplementary Figure 10d (area under the OGTT glucose curve) (blood glucose; mouse 1): 37808
Supplementary Figure 10d (area under the OGTT glucose curve) (blood glucose; mouse 2): 37043
Supplementary Figure 10d (area under the OGTT glucose curve) (blood glucose; mouse 3): 31785
Supplementary Figure 10d (area under the OGTT glucose curve) (blood glucose; mouse 4): 39735
Supplementary Figure 10d (area under the OGTT glucose curve) (blood glucose; mouse 5): 46950
blood glucose (OGTT) (blood glucose; time 0, mouse 1): 197
blood glucose (OGTT) (blood glucose; time 0, mouse 2): 199
blood glucose (OGTT) (blood glucose; time 0, mouse 3): 224
blood glucose (OGTT) (blood glucose; time 0, mouse 4): 245
blood glucose (OGTT) (blood glucose; time 0, mouse 5): 272
blood glucose (OGTT) (blood glucose; time 15, mouse 1): 530
blood glucose (OGTT) (blood glucose; time 15, mouse 2): 406
blood glucose (OGTT) (blood glucose; time 15, mouse 3): 488
blood glucose (OGTT) (blood glucose; time 15, mouse 4): 463
blood glucose (OGTT) (blood glucose; time 15, mouse 5): 524
blood glucose (OGTT) (blood glucose; time 30, mouse 1): 434
blood glucose (OGTT) (blood glucose; time 30, mouse 2): 354
blood glucose (OGTT) (blood glucose; time 30, mouse 3): 258
blood glucose (OGTT) (blood glucose; time 30, mouse 4): 409
blood glucose (OGTT) (blood glucose; time 30, mouse 5): 526
blood glucose (OGTT) (blood glucose; time 60, mouse 1): 273
blood glucose (OGTT) (blood glucose; time 60, mouse 2): 303
blood glucose (OGTT) (blood glucose; time 60, mouse 3): 206
blood glucose (OGTT) (blood glucose; time 60, mouse 4): 300
blood glucose (OGTT) (blood glucose; time 60, mouse 5): 355
blood glucose (OGTT) (blood glucose; time 120, mouse 1): 211
blood glucose (OGTT) (blood glucose; time 120, mouse 2): 262
blood glucose (OGTT) (blood glucose; time 120, mouse 3): 257
blood glucose (OGTT) (blood glucose; time 120, mouse 4): 275
blood glucose (OGTT) (blood glucose; time 120, mouse 5): 308
